In patent US8680114B2, “AKT protein kinase inhibitors” (Array Biopharma, Inc., priority 2003, dated 2014):

Molecular target: full-length human recombinant active AKT-1 (Homo sapiens, UniProt P31749)
Assay: AKT-1 kinase assay (IMAP fluorescence polarization, phosphorylation of fluorescently-labeled peptide)
Type: biochemical
Settings: AKT-1 IMAP assay, qualitative statement, values not given
From the text: The activity of the compounds described in the present invention may be determined by the following procedure: This procedure describes a kinase assay that measures the phosphorylation of a fluorescently-labeled peptide by full-length human recombinant active AKT-1 by fluorescent polarization using a commercially available IMAP kit.
The assay materials come from an IMAP AKT Assay Bulk Kit, product #R8059, from Molecular Devices, Sunnyvale, Calif. The kit materials include an IMAP Reaction Buffer (5×): The diluted 1×IMAP Reaction Buffer contains 10 mM Tris-HCl, pH 7.2, 10 mM MgCl2, 0.1% BSA, 0.05% NaN3. DTT is routinely added to a final concentration of 1 mM immediately prior to use.
Also included are IMAP Binding Buffer (5×), and IMAP Binding Reagent. The Binding Solution is prepared as a 1:400 dilution of IMAP Binding Reagent into 1×IMAP Binding Buffer.
Fluorescein-labeled AKT Substrate (Crosstide), having the sequence (F1)-GRPRTSSFAEG. A stock solution of 20 μM is made up in 1×IMAP Reaction Buffer.
The plates used include a Costar 3657 ([…] made of polypropylene and having a white, v-bottom) that is used for compound dilution and for preparing the compound-ATP mixture. The assay plate was the Packard ProxyPlate™-384 F.
The AKT-1 used was made from full-length, human recombinant AKT-1 that is activated with PDK1 and MAP kinase 2.
The assay procedure starts the preparation of stock solutions of compounds at 10 mM in DMSO. The stock solutions and the control compound are serially diluted 1:2 nine times into DMSO (10 μL of compound+10 μL of DMSO) to give 50× dilution series over the desired dosing range. […]
The assay is initiated by the addition of 2.5-μL aliquots of a solution containing 200 nM of fluorescently-labeled peptide substrate and 4 nM AKT-1. […] The reaction is then quenched by the addition of 15 μL of Binding Solution, centrifuged again and incubated for an additional 30 minutes at ambient temperature prior to reading on a Victor 1420 Multilabel HTS Counter configured to measure fluorescence polarization.

full-length human recombinant active AKT-1, sequence (P31749 whole entry): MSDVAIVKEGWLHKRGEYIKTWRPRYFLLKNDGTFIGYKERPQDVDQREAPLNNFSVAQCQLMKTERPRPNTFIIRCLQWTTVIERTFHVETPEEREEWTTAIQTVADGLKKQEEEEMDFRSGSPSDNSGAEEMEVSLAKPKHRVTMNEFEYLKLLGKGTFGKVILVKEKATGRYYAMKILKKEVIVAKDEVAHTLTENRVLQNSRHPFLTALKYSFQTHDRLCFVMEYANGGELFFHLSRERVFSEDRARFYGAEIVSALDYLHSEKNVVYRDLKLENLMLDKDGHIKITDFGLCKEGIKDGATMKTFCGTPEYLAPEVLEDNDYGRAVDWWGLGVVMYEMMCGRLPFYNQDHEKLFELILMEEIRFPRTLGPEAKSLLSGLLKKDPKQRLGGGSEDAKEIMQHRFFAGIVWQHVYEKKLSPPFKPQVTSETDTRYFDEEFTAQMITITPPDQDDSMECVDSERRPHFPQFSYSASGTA

activity for inhibiting AKT protein kinases	Structure (SMILES)
showed activity	N[C@H](Cc1ccc(Cl)cc1)C(=O)N1CCN(c2ncnc3ccccc23)CC1 [Example 9, (2R)-2-Amino-3-(4-chlorophenyl)-1-(4-quinazolin-4-yl-piperazin-1-yl)-propan-1-one]
showed activity	N[C@H](Cc1ccc2ccccc2c1)C(=O)N1CCN(c2ncnc3ccccc23)CC1 [Example 11, (2R)-2-Amino-3-(2-naphthyl)-1-(4-quinazolin-4-yl-piperazin-1-yl)-propan-1-one]
showed activity	N[C@H](Cc1ccc(Cl)cc1)C(=O)N1CCN(c2ccnc3ccsc23)CC1 [Example 24, (2R)-2-amino-3-(4-chlorophenyl)-1-(4-thieno[3,2,b]pyridin-7-yl-piperazin-1-yl)-propan-1-one dihydochloride]
